Tested on: not listed separately
Assay: Experimental aqueous solubility (UV spectrophotometry of saturated solutions)
Format: physicochemical
Conditions: water (saturated solution), 20 °C, water, thermodynamic from solid; logSm calculated based on solubility Sm (mol/L); read-out: Experimental Aqueous Solubility logSm (converted)
Method: Experimental aqueous solubility was determined following a previously described procedure. Briefly, calibration curves were obtained by means of UV spectrometry for each compound, and their respective linear equations were obtained. Afterwards, saturated solutions of each compound were obtained, and they were diluted until the concentration fell within the calibration range, thus enabling the correct concentration interpolation. […] A detailed description of this process can be found in Supplementary Materials.
The aqueous solubility of the tested organic Se compounds was experimentally determined following a previously described procedure. The chosen assay used UV spectrophotometry to estimate the concentration of the saturated solution with known dilutions of the tested compound at room temperature (20° C) after 24 h. The concentrations of the solutions were used to obtain the interpolation of the measured UV absorbance of the saturated solution dilution from the calibration curve drawn using solutions previously prepared in methanol/water mixtures. […]
1.2. Determination of the aqueous solubility
1.2.1. Preparation of the saturated solutions of tested compounds
The saturated solutions (2 mL) of the tested Se-compounds in water were prepared at H2O boiling point in small glass vials. Later, vials were covered to avoid evaporation and all solutions were left 1 day at 20° C, after when every solution was filtered. Finally, the concentration of the Se-compounds was determined through UV spectrophotometric measurements. To estimate correctly the concentration, calibration curves with known concentrations were prepared, and the saturated solutions were diluted till reaching a point within the range of the respective calibration curve.
1.2.2. Preparation of the calibration curve stock solutions for UV spectrometry The stock solutions of 10 selenoesters (EDA-26, EDA-71, EDA-73, EDA-74, EDA-93, […]
were prepared in methanol (99% purity) at a 1 g/L concentration. Additionally, calibration solutions in the range from 0.0005 to 0.02 [g/L] were prepared for each Se-compound and their UV absorbance was determined to draw the corresponding calibration curve.
1.2.3. Sample preparation of saturated filtrates for UV spectrometry
The 100-fold diluted solutions of the saturated filtrates of the Se-compounds were prepared in the anhydrous methanol (99% purity), by addition of 70 μL of the correspond-ing methanol stock solution over anhydrous methanol till filling a 7 mL final volume. Af-terwards, the absorption of abovementioned solutions was determined. Finally, the solu-tions were diluted with 99% methanol from 1 to 160 times, in function of the compound.
The aim of this procedure was to determine the concentration of the Se-compounds […]
through the controlled dilution of the solution with unknown concentration till its UV absorbance fell within the range of the calibration solutions.
1.2.4. Solubility estimation
For each compound, the calibration curve was calculated through the UV absorbance measurements and the linear equation of the linear part of the curve was calculated. The absorbance of the dilution was then interpolated in this range, finding its concentration.
To determine the solubility, this concentration was multiplied by the dilution factor, which was specific for each derivative. This action enabled the estimation of the in vitro solubility of the tested derivatives in saturated solutions. All the solubility values were the average value obtained from the 3 independent measurements.
(§1) 1.3. PAMPA test: membrane permeability evaluation.
(§2) The passive transport and the membrane absorption of 5 selected selenocompounds (EDA-58, EDA-71, EDA-119, EDA-122, EDA-A6) were evaluated in the in vitro Parallel Artificial Membrane Permeability Assay (PAMPA). The protocol of the permeability assay was similar to the ones previously described.
1.3.1. Stock solutions and sample preparation for PAMPA test […]

| SMILES | solubility at 24 h [mM] |
| --- | --- |
| NC(=O)C[Se]C(=O)c1ccccc1 [EDA-117, Se-carbamoylmethyl benzoselenoate] | 4.27 |

Same assay, conditions: water (saturated solution), thermodynamic from solid; water, room temperature (20° C), after 24 h, average of 3; read-out: Experimental Aqueous Solubility

| SMILES | solubility at 24 h [µg/mL] |
| --- | --- |
| NC(=O)C[Se]C(=O)c1ccccc1 [EDA-117, Se-carbamoylmethyl benzoselenoate] | 1030 |

Tested on: not listed separately
Assay: PAMPA membrane permeability test (capillary electrophoresis)
Format: in vitro ADME
Conditions: 50 μM in PBS pH 7.4, 5 h, room temperature, read-out: In Vitro Permeability
Method: The passive transport and membrane absorption of 5 selected selenocompounds (EDA-58, EDA-71, EDA-119, EDA-122, and EDA-A6) were evaluated with the in vitro parallel artificial membrane permeability assay (PAMPA). This PAMPA assay could provide better predictability and membrane permeability correlations compared to the data obtained for human absorption in the Caco-2 cell line. The Precoated PAMPA Plate System Gentest™ (Corning, Bradford, MA, USA) was used to perform the permeability assay for the 5 selected Se compounds. The protocol of the permeability assay was similar to the previously described ones and is detailed in the Supplementary Materials.
Five selenocompounds (EDA-58, EDA-71, EDA-119, EDA-122, and EDA-A6) were evaluated with the PAMPA in vitro assay using the CE technique.
[formula] Scheme 1 Calculation of the in vitro permeability (cm/s). A (filter area) cm^2 = 0.3; VD (donor well volume) mL = 0.3; VA (acceptor well volume) mL = 0.2; t (incubation time) seconds = 18,000; CA(t) (compound concentration in acceptor well at time t); CD(t) (compound concentration in donor well at time t). […]
as §1, §2
1.3.1. Stock solutions and sample preparation for PAMPA test
Working solutions of the tested compounds at the concentration of the 50 μM in the phosphate saline buffer (PBS, pH 7.4) were prepared from the stocks in the pure dimethyl sulfoxide (DMSO) and stored at -20° C. Moreover, to draw the precise calibration curves for each tested (EDA-58, EDA-71, EDA-119, EDA-122, EDA-A6) and reference com- […]
The Precoated PAMPA Plate System Gentest™ (Corning, Bradford, MA, USA) was used to perform permeability assay for the 5 selected Se-compounds. The essential part of […]
solvents. PAMPA Plate System was brought to room temperature 30 min before use.
The 96-well filter plate precoated with lipids was used as a permeation acceptor, whereas the 96-well receiver plate acted as the permeation donor plate. Therefore, the compound solutions were added to the wells (300 μL/well) of the receiver plate and PBS was added to wells (200 μL/well) of the precoated filter plate.
Then, the filter plate was coupled with the receiver plate and both were incubated at room temperature for five hours without agitation. […] Fi-nally, the permeability coefficients (Pe, [cm/s]) of the tested compounds were estimated using the formula provided by the PAMPA Plate System manufacturer.
1.3.3. Capillary electrophoresis (CE) analytical method […]
were calculated in both the donor and acceptor compartments using the capillary electro-

| SMILES | Papp at 5 h, 50 µM [×10⁻⁶ cm/s] |
| --- | --- |
| Cn1c(=O)c2c(ncn2C)n(C)c1=O [Caffeine, caffeine, reference compound] | 3.42 |
| CCn1cc(C(=O)O)c(=O)c2cc(F)c(N3CCNCC3)cc21 [Norfloxacin, norfloxacin, reference compound] | 0.0949 |

Same assay, conditions: 5 h

| SMILES | % Perm. (percentage that crossed from the donor well to the acceptor well) [%] |
| --- | --- |
| Cn1c(=O)c2c(ncn2C)n(C)c1=O [Caffeine, caffeine, reference compound] | 6.05 |

Tested on: Salmonella Typhimurium TA100 strain
Assay: not given
Conditions: 1 µM; TA100; alert ≥ 2.0
Method: Safety profiles were evaluated using an in vitro microbiological method adapted to the microplate Ames test (384-well microtitration plate), which applies Salmonella enterica serovar Typhimurium bacterial strains (the gold standard in mutagenicity research). The experiment was performed according to a previously described protocol, which is provided in the Supplementary Materials. Briefly, the TA 100 strain (deprived of the ability to synthesize the histidine) was incubated with each tested compound in an exposure medium containing a limited amount of histidine. The reversion events were counted both manually and by means of a microplate reader. Each fold increase bigger than two times the baseline level (≥2.0-fold) was considered to indicate a mutagen alert. The experiments and data analyses were prepared according to the procedure that was previously described by Flückiger-Isler et al.. The assay was performed in triplicate. The positive control selected for the mutagenicity assays was NQNO, which causes genome point mutations; specifically, it promotes G:C → A:T transitions in the Salmonella Typhimurium TA-100 strain and other bacteria such as Vibrio harveyi and Escherichia coli.
In the next step of the studies, the in vitro safety profiles of the tested selenocompounds were evaluated. All compounds were tested with the 384-well plate microfluctuation Ames test. The mutagenic index (MI) was used as the measure of mutagenicity.
1.5. Safety profile evaluation - Ames microplate mutagenicity assay
Safety profile was evaluated by the means of in vitro microbiological methods – adapted to microplate Ames test, which applies Salmonella enterica serovar Typhimurium bacterial strains (the gold standard in mutagenicity research).
1.5.1. Compounds preparation
To evaluate the impact of tested compounds and of references on Salmonella enterica serovar Typhimurium (onwards Salmonella Typhimurium) TA-100 strain growth by means of the Ames test, the compounds or the reference were dissolved in the pure DMSO, to obtain the corresponding 10 mM stock solutions. Working solutions for tested compounds (25 μM and 250 μM concentrations) were prepared before the assay in DMSO.
1.5.2. Microplate Ames mutagenicity assay protocol
Prior to the experiment, Salmonella Typhimurium was cultured overnight (NB-2 liq-uid medium in the presence of 25 μg/mL ampicillin). At the day of the experiment, fresh dilutions of the tested compounds (25 μM and 250 μM), reference compound (methylse-leninic acid) and standard mutagen (4-nitroquinoline-N-oxide at 2.5 μM and 12.5 μM) in DMSO were prepared. The positive control selected for the mutagenicity assays was NQNO, which causes point mutations at the genome. Specifically, it promotes G:C → A:T transitions in Salmonella Typhimurium TA-100 strain and in the other bacteria such as Vib-rio harveyi and Escherichia coli.
The mutagenic potential of the tested derivatives was evaluated by the incubation of the abovementioned bacteria (deprived of the ability to synthesize the histidine) with spe-cific concentrations of the tested compounds (for 90 min in the exposure medium), con-taining a limited amount of histidine (enough to provide approximately 2-3 cell divisions).
The occurrence of reversion events to histidine prototrophy was observed through the bacterial growth in the indicator medium without histidine after 48 h of incubation in temperature of 37° C [45]. The final compound and the mutagenic agent concentrations in each single well of a 384 well plate were 1 μM and 10 μM for the compounds; and 0.1 μM and 0.5 μM for the mutagen. Lastly, both a manual count and a microplate reader were used to obtain the results. The medium control baseline (MCB) was estimated as the mean number of revertants in the medium control plus one standard deviation. Each fold in-crease bigger than two times the baseline level ≥ 2.0 was considered as a mutagen alert.

| SMILES | Fold Increase over Baseline |
| --- | --- |
| COC(=O)C[Se]C(=O)Cc1ccccc1 [EDA-56, methyl 2-((2-phenylacetyl)selanyl)acetate] | 0.93 |
| COC(=O)C[Se]C(=O)c1ccccc1Cl [EDA-46, methyl 2-((2-chlorobenzoyl)selanyl)acetate] | 1.65 |
| COC(=O)C[Se]C(=O)c1ccccc1 [EDA-53, methyl 2-(benzoylselanyl)acetate] | 1.10 |
| NC(=O)C[Se]C(=O)c1ccccc1 [EDA-117, Se-carbamoylmethyl benzoselenoate] | 0.49 |

Same assay, conditions: 1 µM; TA100; mutagenic if MI ≥ 2

| SMILES | MI (mutagenic index) |
| --- | --- |
| COC(=O)C[Se]C(=O)Cc1ccccc1 [EDA-56, methyl 2-((2-phenylacetyl)selanyl)acetate] | 1.46 |
| COC(=O)C[Se]C(=O)c1ccccc1Cl [EDA-46, methyl 2-((2-chlorobenzoyl)selanyl)acetate] | 1.56 |
| COC(=O)C[Se]C(=O)c1ccccc1 [EDA-53, methyl 2-(benzoylselanyl)acetate] | 1.82 |
| NC(=O)C[Se]C(=O)c1ccccc1 [EDA-117, Se-carbamoylmethyl benzoselenoate] | 0.66 |

Same assay, conditions: 1 µM; TA100; threshold ≥ 0.99

| SMILES | B (binomial B value) |
| --- | --- |
| COC(=O)C[Se]C(=O)Cc1ccccc1 [EDA-56, methyl 2-((2-phenylacetyl)selanyl)acetate] | 0.88 |
| COC(=O)C[Se]C(=O)c1ccccc1Cl [EDA-46, methyl 2-((2-chlorobenzoyl)selanyl)acetate] | 1.00 |
| COC(=O)C[Se]C(=O)c1ccccc1 [EDA-53, methyl 2-(benzoylselanyl)acetate] | 1.00 |
| NC(=O)C[Se]C(=O)c1ccccc1 [EDA-117, Se-carbamoylmethyl benzoselenoate] | 0.36 |

Same assay, conditions: 10 µM; TA100; alert ≥ 2.0

| SMILES | Fold Increase over Baseline |
| --- | --- |
| COC(=O)C[Se]C(=O)Cc1ccccc1 [EDA-56, methyl 2-((2-phenylacetyl)selanyl)acetate] | 0.90 |
| COC(=O)C[Se]C(=O)c1ccccc1Cl [EDA-46, methyl 2-((2-chlorobenzoyl)selanyl)acetate] | 1.00 |
| COC(=O)C[Se]C(=O)c1ccccc1 [EDA-53, methyl 2-(benzoylselanyl)acetate] | 1.04 |
| NC(=O)C[Se]C(=O)c1ccccc1 [EDA-117, Se-carbamoylmethyl benzoselenoate] | 0.42 |

Same assay, conditions: 10 µM; TA100; mutagenic if MI ≥ 2

| SMILES | MI (mutagenic index) |
| --- | --- |
| COC(=O)C[Se]C(=O)Cc1ccccc1 [EDA-56, methyl 2-((2-phenylacetyl)selanyl)acetate] | 0.85 |
| COC(=O)C[Se]C(=O)c1ccccc1Cl [EDA-46, methyl 2-((2-chlorobenzoyl)selanyl)acetate] | 0.94 |
| COC(=O)C[Se]C(=O)c1ccccc1 [EDA-53, methyl 2-(benzoylselanyl)acetate] | 1.72 |
| NC(=O)C[Se]C(=O)c1ccccc1 [EDA-117, Se-carbamoylmethyl benzoselenoate] | 0.57 |

Same assay, conditions: 10 µM; TA100; threshold ≥ 0.99

| SMILES | B (binomial B value) |
| --- | --- |
| COC(=O)C[Se]C(=O)Cc1ccccc1 [EDA-56, methyl 2-((2-phenylacetyl)selanyl)acetate] | 0.75 |
| COC(=O)C[Se]C(=O)c1ccccc1Cl [EDA-46, methyl 2-((2-chlorobenzoyl)selanyl)acetate] | 0.88 |
| COC(=O)C[Se]C(=O)c1ccccc1 [EDA-53, methyl 2-(benzoylselanyl)acetate] | 0.98 |
| NC(=O)C[Se]C(=O)c1ccccc1 [EDA-117, Se-carbamoylmethyl benzoselenoate] | 0.18 |

Same assay, conditions: TA100, 1 and 10 µM

| SMILES | mutagenicity conclusion in Ames test |
| --- | --- |
| COC(=O)C[Se]C(=O)c1ccccc1 [EDA-53, methyl 2-(benzoylselanyl)acetate] | non-mutagenic |

From paper PMC8875489, “Pharmaceutical and Safety Profile Evaluation of Novel Selenocompounds with Noteworthy Anticancer Activity” (Pharmaceutics, 2022)
